Data as given in US20260078454A1, “MULTIPLE ANTIBIOTIC BACTERIAL RESPONSE” (priority 2022, published 2026).

How the values were obtained:
[1] = tested on: Pseudomonas aeruginosa; assay: RNA-seq differential expression after single and combined antibiotic exposure; assay type: cell-based; conditions: pan susceptible strain; CLSI resistance break point concentration; 60 minutes; regardless of whether the other two antibiotics were present
Procedure: RNA-sequencing (“RNA-seq”) was conducted using two strains of Pseudomonas aeruginosa: one a resistant strain and the second a pan susceptible strain. The strains were cultured to an optical density of 1.0, or approximately 1.5×10^9 genomic copies/mL (measured using digital PCR). The culture was then aliquoted into four independent culture tubes, three of which contained one single antibiotic and the fourth was a no-antibiotic control. Once mixed with antibiotics, where each antibiotic was dosed at its CLSI resistance break point concentration based upon 2021 guidance, the culture aliquots were returned to an incubator set to 37° C. using ambient air and agitated using orbital mixing for 60 minutes. […] Recovered reads were processed through an internal RNA-seq bioinformatics pipeline that includes the following steps: read quality and adapter trimming, surviving reads were assigned a genomic position in the reference P. aeruginosa genome PA01 using Kallisto (and read counts with dispersion estimates calculated), and differential expression analysis comparing each antibiotic treatment with the no-antibiotic control data set were conducted using Sleuth for each strain. […]

[2] = tested on: Acinetobacter baumannii; assay type: cell-based; conditions: for differentially expressed transcripts in common between amikacin and gentamicin: 3.5 hours of exposure; for number of differentially expressed transcripts: pan-susceptible strain, MIC breakpoint, vs no-antibiotic control
Procedure: A pan-susceptible Acinetobacter baumannii was cultured and exposed to each of the nine conditions (including a no-antibiotic control) above as a single-exposure condition, meaning only one antibiotic per sample, no combination of drugs. Antibiotics were dosed at the resistance break point concentration (MIC breakpoint) for each compound according to the 2023 CLSI M100 guidelines. Antibiotic-treated and control cultures were maintained for 0.5 hours, 1.5 hours, 2.5 hours, and 3.5 hours and subsequently harvested to conduct RNA-seq, as discussed above in Example 3. Multiple replicates of this experimental set-up were performed to assess variance of the transcriptional response.
Cultures at the appropriate OD595 were transferred to a 37° C. incubator until the OD595 was between 0.9-1.4. The culture was distributed into individual treatment tubes containing antibiotics (or not for the control condition) and incubated at 37° C. for the specified exposure times (0.5, 1.5, 2.5, 3.5 hrs). At each timepoint, an aliquot of each of the treated and control culture conditions was removed and nucleic acid was extracted on the bioMérieux EMAG platform. […] The nucleic acid extracts were then treated with DNAse to remove all genomic DNA and extracted a second time, resulting in a pure RNA sample for each condition. These RNA samples were sent to the High-Throughput Genomics Core at the Huntsman Cancer Institute at the University of Utah for RNA-sequencing on the Illumina NovaSeq 6000 platform. A total of five biological replicates were made, which would result in 180 RNA-seq samples (36*5), although due to some instrument difficulties an actual total of 161 samples were sent to the sequencing core lab.
Differential expression analysis of RNA-seq read data is as follows. Read data was adapter and quality trimmed using bbduk (bbmap_38.86). Adapter and quality trimmed reads (fastq) were mapped to an Acinetobacter baumannii genome using Kallisto (Kallisto v0.48.0) to generate read counts for each annotated transcript in the genome. Read count data (all conditions) were normalized using Sleuth (0.30.1) and differential expression tests conducted between each independent antibiotic exposure condition and the no-antibiotic time matched control using the lrt test within Sleuth using a qvalue significance cutoff of 0.05 to determine differential expression. Lists of differentially expressed transcripts for each antibiotic and each timepoint were generated and aggregated according to the MOA classes (see prior) to determine if there was significant overlap in the transcriptional response to each MOA class of antibiotics.

Compound | regulation of antibiotic specific response transcripts [1] | overlap of gentamicin response with amikacin response ([2]; 0.5 hrs of exposure) | differentially expressed transcripts in common between amikacin and gentamicin [2] [%] | number of differentially expressed transcripts ([2]; 0.5 hrs of exposure)
C[C@@H](O)[C@H]1C(=O)N2C(C(=O)O)=C(S[C@@H]3CN[C@H](C(=O)N(C)C)C3)[C@H](C)[C@H]12 [meropenem] | up regulation of five transcripts |  |  | 
gentamicin | up regulation of eight transcripts | fully contained within the amikacin response | 93.2 | 6
C[C@H]1COc2c(N3CCN(C)CC3)c(F)cc3c(=O)c(C(=O)O)cn1c23 [levofloxacin] |  |  |  | 1394
NCC[C@H](O)C(=O)N[C@@H]1C[C@H](N)[C@@H](O[C@H]2O[C@H](CN)[C@@H](O)[C@H](O)[C@H]2O)[C@H](O)[C@H]1O[C@H]1O[C@H](CO)[C@@H](O)[C@H](N)[C@H]1O [amikacin] |  |  | 93.2 | 1825
